In patent US20230278972A1, “SUBSTITUTED HALOALKYL SULFONANILIDE HERBICIDES” (FMC Corporation, priority 2020, published 2023):

How the values were obtained:
Assay type in all cases: in vivo
[1] = tested on: barnyardgrass (Echinochloa crus-galli); test: Test A preemergence, barnyardgrass; settings: Preemergence; for Barnyardgrass plant response rating: 125 g ai/ha, visual injury on 0 to 100 scale (0 no effect, 100 complete control), approximately 10 days; for Plant response rating, Barnyardgrass: 500 g ai/ha, 0 to 100 scale (0 no effect, 100 complete control)
In short: (§1)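 Pots: loam soil/sand blend. Pre: directed soil spray at planting. Post: plants 2–10 cm, 1–2 leaf stage. Formulation: non-phytotoxic solvent + surfactant.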

kochia (Bassia scoparia) [2] = test: Test A preemergence, kochia; settings: Preemergence; for Kochia plant response rating: 125 g ai/ha, visual injury on 0 to 100 scale (0 no effect, 100 complete control), approximately 10 days; for Plant response rating, Kochia: 500 g ai/ha, 0 to 100 scale (0 no effect, 100 complete control)
In short: as §1

[3] = tested on: ragweed (common ragweed, Ambrosia artemisiifolia); test: Test A preemergence, ragweed; settings: Preemergence; for Ragweed plant response rating: 125 g ai/ha, visual injury on 0 to 100 scale (0 no effect, 100 complete control), approximately 10 days; for Plant response rating, Ragweed: 500 g ai/ha, 0 to 100 scale (0 no effect, 100 complete control)
In short: as §1

[4] = tested on: Ryegrass, Italian (Italian ryegrass, Lolium multiflorum); test: Test A preemergence, Ryegrass, Italian; settings: Preemergence; for Ryegrass, Italian plant response rating: 125 g ai/ha, visual injury on 0 to 100 scale (0 no effect, 100 complete control), approximately 10 days; for Plant response rating, Ryegrass, Italian: 500 g ai/ha, 0 to 100 scale (0 no effect, 100 complete control)
In short: as §1

[5] = tested on: Foxtail, Giant (giant foxtail, Setaria faberi); test: Test A preemergence, Foxtail, Giant; settings: Preemergence; for Foxtail, Giant plant response rating: 125 g ai/ha, visual injury on 0 to 100 scale (0 no effect, 100 complete control), approximately 10 days; for Plant response rating, Foxtail, Giant: 500 g ai/ha, 0 to 100 scale (0 no effect, 100 complete control)
In short: as §1

[6] = tested on: pigweed (Amaranthus retroflexus); test: Test A preemergence, pigweed; settings: for Pigweed plant response rating: 125 g ai/ha, visual injury on 0 to 100 scale (0 no effect, 100 complete control), approximately 10 days; for Plant response rating, Pigweed: 500 g ai/ha, 0 to 100 scale (0 no effect, 100 complete control)
In short: (§2)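 Greenhouse pot test in a loam–sand blend; compounds delivered in a non-phytotoxic solvent carrying a surfactant, applied either as a directed spray to soil at seeding or over seedlings 2 to 10 cm high with one to two leaves.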

[7] = tested on: barnyardgrass (Echinochloa crus-galli); test: Test A postemergence, barnyardgrass; settings: Postemergence, 0 to 100 scale (0 no effect, 100 complete control); for Barnyardgrass plant response rating: visual injury vs untreated controls after approx. 10 days
In short: as §2

kochia (Bassia scoparia) [8] = test: Test A postemergence, kochia; settings: Postemergence, 0 to 100 scale (0 no effect, 100 complete control); for Kochia plant response rating: visual injury vs untreated controls after approx. 10 days
In short: as §1

[9] = tested on: ragweed (common ragweed, Ambrosia artemisiifolia); test: Test A postemergence, ragweed; settings: Postemergence, 0 to 100 scale (0 no effect, 100 complete control); for Ragweed plant response rating: visual injury vs untreated controls after approx. 10 days
In short: as §1

[10] = tested on: Ryegrass, Italian (Italian ryegrass, Lolium multiflorum); test: Test A postemergence, Ryegrass, Italian; settings: Postemergence, 0 to 100 scale (0 no effect, 100 complete control); for Ryegrass, Italian plant response rating: visual injury vs untreated controls after approx. 10 days
In short: as §1

[11] = tested on: Foxtail, Giant (giant foxtail, Setaria faberi); test: Test A postemergence, Foxtail, Giant; settings: Postemergence, 0 to 100 scale (0 no effect, 100 complete control); for Foxtail, Giant plant response rating: visual injury vs untreated controls after approx. 10 days
In short: as §1

[12] = tested on: pigweed (Amaranthus retroflexus); test: Test A postemergence, pigweed; settings: Postemergence, 0 to 100 scale (0 no effect, 100 complete control); for Pigweed plant response rating: visual injury vs untreated controls after approx. 10 days
In short: as §1

[13] = tested on: wheat (Triticum aestivum); test: Test A postemergence, wheat; settings: Postemergence, 0 to 100 scale (0 no effect, 100 complete control); for Wheat plant response rating: visual injury vs untreated controls after approx. 10 days
In short: as §2

corn (Zea mays) = test: Test A postemergence, corn; settings: Postemergence, 0 to 100 scale (0 no effect, 100 complete control); for Corn plant response rating: visual injury vs untreated controls after approx. 10 days
In short: as §1

[14] = tested on: blackgrass (Alopecurus myosuroides); test: Test A postemergence, blackgrass; settings: Postemergence, 0 to 100 scale (0 no effect, 100 complete control); for Blackgrass plant response rating: visual injury vs untreated controls after approx. 10 days
In short: as §1

[15] = tested on: galium (catchweed bedstraw, Galium aparine); test: Test A postemergence, galium; settings: Postemergence, 0 to 100 scale (0 no effect, 100 complete control); for Galium plant response rating: visual injury vs untreated controls after approx. 10 days
In short: as §2

[16] = 125 g ai/ha, visual injury approx. 10 days
[17] = 500 g ai/ha, visual injury, approx. 10 days

| Compound | Barnyardgrass plant response rating [1] | Plant response rating, Barnyardgrass [1] | Kochia plant response rating (kochia (Bassia scoparia) [2]) | Plant response rating, Kochia (kochia (Bassia scoparia) [2]) | Ragweed plant response rating [3] | Plant response rating, Ragweed [3] | Ryegrass, Italian plant response rating [4] | Plant response rating, Ryegrass, Italian [4] | Foxtail, Giant plant response rating [5] | Plant response rating, Foxtail, Giant [5] | Pigweed plant response rating [6] | Plant response rating, Pigweed [6] | Plant response rating, Barnyardgrass [7, 16] | Plant response rating, Kochia (kochia (Bassia scoparia) [8]; [16]) | Plant response rating, Ragweed [9, 16] | Plant response rating, Ryegrass, Italian [10, 16] | Plant response rating, Foxtail, Giant [11, 16] | Plant response rating, Pigweed [12, 16] | Plant response rating, Wheat [13, 16] | Plant response rating, Corn (corn (Zea mays); [16]) | also measured |
| --- | --- | --- | --- | --- | --- | --- | --- | --- | --- | --- | --- | --- | --- | --- | --- | --- | --- | --- | --- | --- | --- |
| COCC1(COC)CC(c2cc(NS(=O)(=O)C(F)(F)F)c(C)cc2C)=NO1 [Compound 104] | 90 | 100 | 0 | 50 | 30 | 60 | 50 | 100 | 90 | 100 | 70 | 90 | 80 | 30 | 70 | 10 | 20 | 40 | 20 | 30 | Barnyardgrass plant response rating ([7]; 500 g ai/ha): 90; Kochia plant response rating (kochia (Bassia scoparia) [8]; 500 g ai/ha): 40; Ragweed plant response rating ([9]; 500 g ai/ha): 90; Ryegrass, Italian plant response rating ([10]; 500 g ai/ha): 40; Foxtail, Giant plant response rating ([11]; 500 g ai/ha): 70; Pigweed plant response rating ([12]; 500 g ai/ha): 80; Wheat plant response rating ([13]; 500 g ai/ha): 60; Corn plant response rating (corn (Zea mays); 500 g ai/ha): 80; Plant response rating, Blackgrass [14, 16]: 0; Blackgrass plant response rating ([14]; 500 g ai/ha): 20; Plant response rating, Galium [15, 16]: 90; Galium plant response rating ([15]; 500 g ai/ha): 90 |
| COc1cc(-c2cc(NS(=O)(=O)C(F)(F)F)c(C)cc2C)c(=O)n(C)n1 [Compound 70] | 90 | 100 | 0 | 0 | 10 | 70 | 50 | 60 | 10 | 90 | 80 | 80 | 0 | 0 | 0 | 0 | 0 | 0 | 0 | 0 | Barnyardgrass plant response rating ([7]; 500 g ai/ha): 50; Kochia plant response rating (kochia (Bassia scoparia) [8]; 500 g ai/ha): 0; Ragweed plant response rating ([9]; 500 g ai/ha): 0; Ryegrass, Italian plant response rating ([10]; 500 g ai/ha): 0; Foxtail, Giant plant response rating ([11]; 500 g ai/ha): 20; Pigweed plant response rating ([12]; 500 g ai/ha): 20; Wheat plant response rating ([13]; 500 g ai/ha): 30; Corn plant response rating (corn (Zea mays); 500 g ai/ha): 0; Plant response rating, Blackgrass [14, 16]: 30; Blackgrass plant response rating ([14]; 500 g ai/ha): 30; Plant response rating, Galium [15, 16]: 60; Galium plant response rating ([15]; 500 g ai/ha): 80 |
| Cc1cc(C)c(-c2cc(C(C)C)nn(C)c2=O)cc1NS(=O)(=O)C(F)(F)F [Compound 41] | 50 | 90 | 0 | 0 | 30 | 80 | 60 | 80 | 10 | 80 | 0 | 0 | 0 | 0 | 40 | 60 | 0 | 0 | 50 | 0 | Plant response rating, Barnyardgrass [7, 17]: 80; Plant response rating, Kochia (kochia (Bassia scoparia) [8]; [17]): 0; Plant response rating, Ragweed [9, 17]: 70; Plant response rating, Ryegrass, Italian [10, 17]: 60; Plant response rating, Foxtail, Giant [11, 17]: 30; Plant response rating, Pigweed [12, 17]: 0; Plant response rating, Wheat [13, 17]: 60; Plant response rating, Corn (corn (Zea mays); [17]): 0; Plant response rating, Blackgrass [14, 16]: 0; Plant response rating, Blackgrass [14, 17]: 40; Plant response rating, Galium [15, 16]: 10; Plant response rating, Galium [15, 17]: 30 |
| Cc1cc(C)c(-c2ccnn(C)c2=O)cc1NS(=O)(=O)C(F)(F)F [Compound 80] | 90 | 90 | 80 | 80 | 70 | 90 | 90 | 90 | 90 | 100 | 60 | 90 | 70 | 40 | 90 | 70 | 90 | 70 | 60 | 20 | Barnyardgrass plant response rating ([7]; 500 g ai/ha): 90; Kochia plant response rating (kochia (Bassia scoparia) [8]; 500 g ai/ha): 70; Ragweed plant response rating ([9]; 500 g ai/ha): 90; Ryegrass, Italian plant response rating ([10]; 500 g ai/ha): 80; Foxtail, Giant plant response rating ([11]; 500 g ai/ha): 90; Pigweed plant response rating ([12]; 500 g ai/ha): 70; Wheat plant response rating ([13]; 500 g ai/ha): 80; Corn plant response rating (corn (Zea mays); 500 g ai/ha): 80; Plant response rating, Blackgrass [14, 16]: 60; Blackgrass plant response rating ([14]; 500 g ai/ha): 100; Plant response rating, Galium [15, 16]: 90; Galium plant response rating ([15]; 500 g ai/ha): 90 |
